Where a name gives a salt, the structure may show the parent alone. Read-outs that look alike come from different tables or passages of the source.
Columns and labels:
CCR3 = target: T1, CCR3 (Homo sapiens, UniProt P51677); experiment: Effect on intracellular calcium concentration in eosinophils upon CCL11 stimulation; type: cell-based; details: peripheral blood eosinophils of healthy subject, agonist CCL11 1.0 nmol/L, compound 3 min before stimulation, Fura-2 AM; read-out: IC50 (50% suppression of the increase in the intracellular calcium concentration)
T1 construct: Eosinophils separated from peripheral blood of healthy subject; endogenous in cells; host or cells: eosinophils separated from peripheral blood of healthy subject
T1 sequence (P51677 1-355): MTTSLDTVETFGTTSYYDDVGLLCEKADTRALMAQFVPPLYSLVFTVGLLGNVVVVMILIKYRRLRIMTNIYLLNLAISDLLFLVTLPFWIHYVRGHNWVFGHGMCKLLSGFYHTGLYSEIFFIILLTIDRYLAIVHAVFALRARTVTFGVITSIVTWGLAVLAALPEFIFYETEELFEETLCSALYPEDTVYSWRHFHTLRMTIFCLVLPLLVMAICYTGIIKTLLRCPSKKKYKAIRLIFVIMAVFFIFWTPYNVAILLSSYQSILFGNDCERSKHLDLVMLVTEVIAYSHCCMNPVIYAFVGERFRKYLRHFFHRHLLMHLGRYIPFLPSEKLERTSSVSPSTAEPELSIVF
Method: Effect on Intracellular Calcium Concentration
The effect of the compound of the present invention on intracellular calcium mobilization in peripheral blood eosinophils of healthy subject upon CCL11 stimulation was examined by the following method.
Eosinophils separated from peripheral blood of healthy subject were suspended in 0.5% bovine serum albumin-containing phosphate buffered saline, and incubated at 37° C. for 45 min in the presence of 5 μmol/L of Fura-2 AM (manufactured by DOJINDO LABORATORIES).
After incubation, the cells were washed 3 times with a measurement buffer (10 mmol/L HEPES, and 0.5% bovine serum albumin-containing hanks' balanced salt solution) to remove Fura-2 AM that was not incorporated into the cells.
Finally, the cells were adjusted to 1×10^6 cells/mL with the measurement buffer and preserved in a dark place until measurement. The intracellular calcium was measured using FDSS3000 manufactured by Hamamatsu Photonics K.K. In other words, the cell suspension (0.1 mL) loaded with Fura-2 AM was placed in a 96 well plate for measurement, the fluorescence intensity to the excitation light at wavelengths 340 nm and 380 nm was measured by FDSS3000, the ratio of the fluorescence intensity to the excitation light at these two wavelengths was determined, based on which the intracellular calcium concentration was calculated. As the agonist, used was CCL11 (1.0 nmol/L), which is a CCR3 selective ligand, and the antagonistic activity was determined as 50% suppression rate (IC50 value) of the increase in the intracellular calcium concentration, when eosinophils were treated with various concentrations of the compound of the present invention at 3 min before agonist stimulation.

[1] = test system: mouse ovalbumin (OVA) induced allergic and biphasic ear edema; experiment: Antigen (OVA) induced allergic and biphasic ear edema model; type: in vivo; details: male BALB/c mice, oral once a day from 2 days before induction, 3 or 10 mg/kg tested
Method: 3: Effect on Antigen Induced Allergic and Biphasic Ear Edema Model
The in vivo effect of the compound of the present invention was examined using a mouse ovalbumin (OVA) induced allergic and biphasic ear edema model. The model was prepared according to the method of Sugawara et al. (Allergy & Clinical Immunology International, Supplement No. 2, P 785, 2000). In other words, male BALB/c mice were immunized by intraperitoneal injection with 10 μg of OVA and 1 mg of aluminum hydroxide gel (Alum). At 14 days after immunization, OVA (5 μg) were subcutaneously injected to the both ears of the mouse, whereby ear edema was induced. The thickness of the ears was measured using a dial sickness gauge immediately before subcutaneous injection and 1 and 24 hrs after subcutaneous injection of OVA. The compound of the present invention was suspended in a vehicle, 0.5% hydroxypropylmethyl cellulose solution, and orally administered at 3 mg/kg or 10 mg/kg once a day using an orally gavage needle from 2 days before ear edema induction.

[2] = ear thickness 1 hr after OVA, read-out: Dose that showed a significant suppressive action vs vehicle, Immediate phase
[3] = ear thickness 24 hrs after OVA, read-out: Dose that showed a significant suppressive action vs vehicle, Late phase

SMILES	IC50 (CCR3) [nM]	minimal effective dose [1, 2] [mg/kg]	minimal effective dose [1, 3] [mg/kg]
NC(=O)c1csc(SCC(=O)NC[C@H]2CN(Cc3ccc(F)c(Cl)c3)CCO2)n1 [Example 112, (2S)-(4-carbamoylthiazol-2-ylthio)-N-{[4-(3-chloro-4-fluorobenzyl)morpholin-2-yl]methyl}acetamide]	0.9	–	–
O=C(CSc1ccc(=O)[nH]n1)NC[C@H]1CN(Cc2ccc(F)c(F)c2)CCO1 [Example 198, (2S)-N-{[4-(3,4-difluorobenzyl)morpholin-2-yl]methyl}-(6-oxo-1,6-dihydropyridazin-3-ylthio)acetamide]	3.9	10	10
O=C(CSc1ncccn1)NC[C@H]1CN(Cc2ccc(Cl)c(Cl)c2)CCO1 [Example 146, (2S)-N-{[4-(3,4-dichlorobenzyl)morpholin-2-yl]methyl}-(pyrimidin-2-ylthio)acetamide]	2.5	3	3
NC(=O)CNC(=O)c1ccc(SCC(=O)NC[C@H]2CN(Cc3ccc(Cl)c(Cl)c3)CCO2)cc1 [Example 40, (2S)-{4-[(2-amino-2-oxoethyl)aminocarbonyl]phenylthio}-N-{[4-(3,4-dichlorobenzyl)morpholin-2-yl]methyl}acetamide]	2	3	3
O=C(CSc1nc2cccnc2s1)NC[C@H]1CN(Cc2ccc(Cl)c(Cl)c2)CCO1 [Example 64, (2S)-N-{[4-(3,4-dichlorobenzyl)morpholin-2-yl]methyl}-([1,3]thiazolo[5,4-b]pyridin-2-ylthio)acetamide]	0.3	10	3
NC(=O)CNC(=O)c1csc(SCC(=O)NC[C@H]2CN(Cc3ccc(F)c(F)c3)CCO2)n1 [Example 115, (2S)-[4-(2-amino-2-oxoethyl)aminocarbonylthiazol-2-ylthio]-N-{[4-(3,4-difluorobenzyl)morpholin-2-yl]methyl}acetamide]	2.6	–	–
O=C(CCCS(=O)(=O)C1CCCC1)NC[C@H]1CN(Cc2ccc(F)c(Cl)c2)CCO1 [Example 232, (2S)-4-(cyclopentanesulfonyl)-N-{[4-(3-chloro-4-fluorobenzyl)morpholin-2-yl]methyl}butyramide]	38.5	–	–
NC(=O)c1csc(SCCCC(=O)NC[C@H]2CN(Cc3ccc(Cl)c(Cl)c3)CCO2)n1 [Example 55, (2S)-4-(4-carbamoylthiazol-2-ylthio)-N-{[4-(3,4-dichlorobenzyl)morpholin-2-yl]methyl}butyramide hydrochloride]	1.1	–	–
NC(=O)/C=C/c1csc(SCC(=O)NC[C@H]2CN(Cc3ccc(Cl)c(Cl)c3)CCO2)n1 [Example 71, (2S)-(E)-[4-(2-carbamoylethen-1-yl)thiazol-2-ylthio]-N-{[4-(3,4-dichlorobenzyl)morpholin-2-yl]methyl}acetamide]	0.5	–	–
NC(=O)Cc1cncc(SCC(=O)NC[C@H]2CN(Cc3ccc(Cl)c(Cl)c3)CCO2)n1 [Example 223, (2S)-[6-(carbamoylmethyl)pyrazin-2-ylthio]-N-{[4-(3,4-dichlorobenzyl)morpholin-2-yl]methyl}acetamide]	0.1	–	–
NC(=O)c1cncc(SCC(=O)NC[C@H]2CN(Cc3ccc(Cl)c(Cl)c3)CCO2)c1 [Example 207, (2S)-(3-carbamoylpyridin-5-ylthio)-N-{[4-(3,4-dichlorobenzyl)morpholin-2-yl]methyl}acetamide]	2.4	–	–
CC(=O)Nc1nnc(SCC(=O)NC[C@H]2CN(Cc3ccc(Cl)c(Cl)c3)CCO2)s1 [Example 53, (2S)-(5-acetamino-1,3,4-thiadiazol-2-ylthio)-N-{[4-(3,4-dichlorobenzyl)morpholin-2-yl]methyl}acetamide]	5.3	3	3
Cc1sc(SCC(=O)NC[C@H]2CN(Cc3ccc(Cl)c(Cl)c3)CCO2)nc1C(=O)O [Example 109, (2S)-(4-carboxy-5-methylthiazol-2-ylthio)-N-{[4-(3,4-dichlorobenzyl)morpholin-2-yl]methyl}acetamide]	22.3	–	–
NC(=O)Cc1csc(SCC(=O)NC[C@H]2CN(Cc3ccc(F)c(F)c3)CCO2)n1 [Example 79, (2S)-[4-(carbamoylmethyl)thiazol-2-ylthio]-N-{[4-(3,4-difluorobenzyl)morpholin-2-yl]methyl}acetamide]	0.9	–	–
Nc1nnc(SCC(=O)NC[C@H]2CN(Cc3cccc(Cl)c3)CCO2)s1 [Example 123, (2S)-(5-amino-1,3,4-thiadiazol-2-ylthio)-N-{[4-(3-chlorobenzyl)morpholin-2-yl]methyl}acetamide]	2.6	10	10
Nc1nnc(SCC(=O)NC[C@H]2CN(Cc3ccc(F)c(F)c3)CCO2)s1 [Example 125, (2S)-(5-amino-1,3,4-thiadiazol-2-ylthio)-N-{[4-(3,4-difluorobenzyl)morpholin-2-yl]methyl}acetamide]	3.6	10	3
Cc1sc(SCC(=O)NC[C@H]2CN(Cc3ccc(Cl)c(Cl)c3)CCO2)nc1C(N)=O [Example 110, (2S)-(4-carbamoyl-5-methylthiazol-2-ylthio)-N-{[4-(3,4-dichlorobenzyl)morpholin-2-yl]methyl}acetamide]	1.5	–	–
NC(=O)Cc1csc(SCC(=O)NC[C@H]2CN(Cc3ccc(F)cc3)CCO2)n1 [Example 107, (2S)-[4-(carbamoylmethyl)thiazol-2-ylthio]-N-{[4-(4-fluorobenzyl)morpholin-2-yl]methyl}acetamide]	2.5	–	–
O=C(CSc1nc(-c2nnn[nH]2)cs1)NC[C@H]1CN(Cc2ccc(Cl)c(Cl)c2)CCO1 [Example 59, (2S)-N-{[4-(3,4-dichlorobenzyl)morpholin-2-yl]methyl}-[4-(1H-tetrazol-5-yl)thiazol-2-ylthio]acetamide]	2.1	–	–
CC(=O)c1cc2cc(SCC(=O)NC[C@H]3CN(Cc4ccc(Cl)c(Cl)c4)CCO3)ccc2oc1=O [Example 174, (2S)-(3-acetyl-2-oxo-2H-chromen-6-ylthio)-N-{[4-(3,4-dichlorobenzyl)morpholin-2-yl]methyl}acetamide]	16.2	–	–
O=C(O)CCNC(=O)c1csc(SCC(=O)NC[C@H]2CN(Cc3ccc(Cl)c(Cl)c3)CCO2)n1 [Example 46, (2S)-{4-[(2-carboxyethyl)aminocarbonyl]thiazol-2-ylthio}-N-{[4-(3,4-dichlorobenzyl)morpholin-2-yl]methyl}acetamide hydrochloride]	3.1	10	10

From US7935700B2, “Morpholine compound” (Mitsubishi Tanabe Pharma Corporation, priority 2004, dated 2011)
